Assay results published in patent US7829300B2 (priority 2002, dated 2010).

Legend:
P2X7 = biological target: T1, P2X7 (Homo sapiens, UniProt Q99572); settings: P2X7 versus P2Y2; cited from earlier work
T1 sequence (Q99572 1-595): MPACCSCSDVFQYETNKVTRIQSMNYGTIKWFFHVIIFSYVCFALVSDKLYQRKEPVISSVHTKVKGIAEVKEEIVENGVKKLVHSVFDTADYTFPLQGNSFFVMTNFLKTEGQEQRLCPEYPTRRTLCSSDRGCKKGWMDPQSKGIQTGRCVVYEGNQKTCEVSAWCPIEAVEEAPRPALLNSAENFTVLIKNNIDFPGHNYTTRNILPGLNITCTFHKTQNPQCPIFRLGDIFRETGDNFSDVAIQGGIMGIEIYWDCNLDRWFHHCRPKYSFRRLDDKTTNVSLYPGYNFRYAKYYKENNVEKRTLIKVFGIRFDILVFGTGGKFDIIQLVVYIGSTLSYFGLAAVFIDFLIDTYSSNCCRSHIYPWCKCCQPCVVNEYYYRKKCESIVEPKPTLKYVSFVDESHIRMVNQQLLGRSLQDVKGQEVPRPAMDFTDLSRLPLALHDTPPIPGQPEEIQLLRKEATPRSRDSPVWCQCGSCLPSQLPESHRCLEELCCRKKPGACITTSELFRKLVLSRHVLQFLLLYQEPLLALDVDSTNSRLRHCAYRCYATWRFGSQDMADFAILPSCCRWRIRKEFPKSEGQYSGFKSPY

P2Y2 receptor = assay: Cytoplasmic Ca2+ measurement with ATP alone in CHOK1-μ-K32 cells (endogenous P2Y2); format: cell-based
μ opioid receptor = biological target: T2, μ opioid receptor (Homo sapiens, UniProt P35372); format: cell-based
T2 construct: expressed in transfected cells; host or cells: CHO K1 (clone CHOK1-μ-K32)
T2 sequence (P35372 whole entry, species assumed): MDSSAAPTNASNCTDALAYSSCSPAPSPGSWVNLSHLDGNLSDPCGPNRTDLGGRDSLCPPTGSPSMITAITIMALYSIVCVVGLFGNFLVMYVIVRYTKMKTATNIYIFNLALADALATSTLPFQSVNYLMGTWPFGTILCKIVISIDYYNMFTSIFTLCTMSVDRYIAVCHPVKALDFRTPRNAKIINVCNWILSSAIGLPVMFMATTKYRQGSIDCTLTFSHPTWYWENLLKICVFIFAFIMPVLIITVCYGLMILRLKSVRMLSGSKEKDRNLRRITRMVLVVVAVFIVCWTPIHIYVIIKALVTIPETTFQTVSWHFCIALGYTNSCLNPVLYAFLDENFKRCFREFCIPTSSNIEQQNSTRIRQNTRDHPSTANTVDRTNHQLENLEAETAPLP

[1] = tested on: CHOK1-empty (mock) strain; format: cell-based
5HT-1B receptor = biological target: T3, 5HT-1B receptor (Cricetulus griseus, UniProt P46636); assay: Cytoplasmic Ca2+ measurement (FLIPR, fluo-4) of the endogenously expressed 5HT-1B receptor in CHO K1 cells; format: cell-based; settings: serotonin concentration 10 μM, 100 nM ATP, CHOK1-ORL-K66, mean of four measurements
T3 construct: the 5HT-1B receptor endogenously expressed by the CHO cells; endogenous in cells; host or cells: CHO K1 (CHOK1-ORL-K66)
T3 sequence (P46636 whole entry): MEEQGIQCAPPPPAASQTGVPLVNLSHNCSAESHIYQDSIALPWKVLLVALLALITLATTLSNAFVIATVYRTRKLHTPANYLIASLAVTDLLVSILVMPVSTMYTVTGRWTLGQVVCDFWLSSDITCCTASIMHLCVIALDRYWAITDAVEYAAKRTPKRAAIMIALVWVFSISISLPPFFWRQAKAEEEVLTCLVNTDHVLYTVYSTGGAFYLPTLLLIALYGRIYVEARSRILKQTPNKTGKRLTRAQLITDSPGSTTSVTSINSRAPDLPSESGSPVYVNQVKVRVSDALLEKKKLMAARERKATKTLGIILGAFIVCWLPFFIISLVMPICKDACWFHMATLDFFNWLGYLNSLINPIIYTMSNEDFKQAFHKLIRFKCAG
Description: The cytoplasmic Ca^2+ concentration was measured in all the Examples using the FLIPR Calcium Plus Assay Kit and a corresponding FLIPR device from Molecular Devices, according to the manufacturer's instructions.
In brief, on the day preceding the experiment, the cells to be measured were plated out in a suitable 96-well cell culture plate, in a density of 25,000 cells per well, in a volume of 100 μl of the appropriate medium. Cell culture plates from Becton-Dickinson (order no. 66440) coated with poly-D-lysine were used for the test. On the day of the test, the cells were loaded with fluo-4. To that end, a vial of fluo-4 was dissolved in 23 μl of DMSO and 23 μl of Pluronic F 127. 42 μl of the solution were added to 21 ml of HBSS (+Probenecid and Hepes). 50 μl of this solution per well were added to the cells, the plates being incubated, for loading, for 30 minutes at 37° C., 5% CO2, 98% relative humidity. In order to remove excess loading solution, the plates were washed three times with 200 μl of HBSS in a washing device for 96-well plates. This was followed by a dispension step, in which in each case 100 μl of HBSS were added to the cells. […]
Compared with the negative control, the addition of the 5HT-1B agonist serotonin produced a marked signal intensification in the fluorescence measurement (FIG. 6).

In the case of `Nc1ncnc2c1ncn2[C@@H]1O[C@H](COP(=O)(O)OP(=O)(O)OP(=O)(O)O)[C@@H](O)[C@H]1O` [ATP], the “ATP binding to P2X7 relative to P2Y2 (times more weakly)” value (P2X7) is listed as “about 100 times”, the fluorescence signal (P2Y2 receptor; 300 nM ATP, absence of DAMGO, CHOK1-μ-K32) is listed as “more than 1000 relative units” and the “ATP concentration at which a change in the fluorescence is detectable” value (P2Y2 receptor; ATP on its own, CHO-μ-K32 cells) is listed as no less than 300 nM.
In the case of `C[C@@H](NC(=O)[C@@H](N)Cc1ccc(O)cc1)C(=O)NCC(=O)N(C)[C@@H](Cc1ccccc1)C(=O)NCCO` [DAMGO], the “fluorescence intensity in dependence on concentration” value (μ opioid receptor) is reported as “conventional dose-response curve”, the fluorescence signal (μ opioid receptor) is reported as “about 300 relative units” and the “effect of DAMGO on the ATP-triggered fluorescence signal” value [1] is reported as “not affected”. The “fluorescence signal in non-transfected CHOK1 cells” value [1] was “none of the μ-receptor agonists used gave a fluorescence signal above the background”.
For `NCCc1c[nH]c2ccc(O)cc12` [serotonin], the “fluorescence intensity on average” value (5HT-1B receptor) was 1337 relative units.
